In the series the target is SMN2. The series can be described thus: mouse, dose not given. Particulars: ASO.

From the OligoGym collection come the findings set out here.

HELM strings list units from the 5' end as sugar, base in round brackets, then linkage (d deoxyribose, r ribose, m 2'-O-methyl, p phosphodiester). Strings are as the collection lists them; they lack the last nucleoside at the 3' end of the tested compound. [moe] = 2'-O-(2-methoxyethyl) (MOE); [sp] = phosphorothioate linkage; [m5C] = 5-methylcytosine

The substance “RNA1{[moe]([m5C])[sp].[moe](A)[sp].[moe]([m5C])[sp].[moe](T)[sp].[moe](T)[sp].[moe](T)p.[moe]([m5C])p.[moe](A)p.[moe](T)p.[moe](A)p.[moe](A)p.[moe](T)p.[moe](G)[sp].[moe]([m5C])[sp].[moe](T)[sp].[moe](G)[sp].[moe](G)}$$$$ (last 3' nucleoside missing)” had a 3 h FOB score of 0 score 0-7.

In the case of “RNA1{[moe]([m5C])[sp].[moe](A)[sp].[moe]([m5C])[sp].[moe](T)[sp].[moe](T)p.[moe](T)[sp].[moe]([m5C])[sp].[moe](A)[sp].[moe](T)[sp].[moe](A)[sp].[moe](A)[sp].[moe](T)[sp].[moe](G)[sp].[moe]([m5C])[sp].[moe](T)[sp].[moe](G)[sp].[moe](G)}$$$$ (last 3' nucleoside missing)”, the 3 h FOB score is 0.5 score 0-7.

In turn, “RNA1{[moe]([m5C])[sp].[moe](A)[sp].[moe]([m5C])[sp].[moe](T)[sp].[moe](T)p.[moe](T)[sp].[moe]([m5C])[sp].[moe](A)[sp].[moe](T)[sp].[moe](A)[sp].[moe](A)[sp].[moe](T)[sp].[moe](G)[sp].[moe]([m5C])[sp].[moe](T)p.[moe](G)[sp].[moe](G)}$$$$ (last 3' nucleoside missing)” came in with a 3 h FOB score of 0 score 0-7.

For “RNA1{[moe]([m5C])[sp].[moe](A)[sp].[moe]([m5C])[sp].[moe](T)[sp].[moe](T)p.[moe](T)p.[moe]([m5C])p.[moe](A)p.[moe](T)[sp].[moe](A)[sp].[moe](A)[sp].[moe](T)[sp].[moe](G)[sp].[moe]([m5C])[sp].[moe](T)[sp].[moe](G)[sp].[moe](G)}$$$$ (last 3' nucleoside missing)”, the 3 h FOB score amounted to 0 score 0-7.

Substance “RNA1{[moe]([m5C])[sp].[moe](A)[sp].[moe]([m5C])[sp].[moe](T)p.[moe](T)p.[moe](T)[sp].[moe]([m5C])[sp].[moe](A)[sp].[moe](T)[sp].[moe](A)[sp].[moe](A)[sp].[moe](T)[sp].[moe](G)[sp].[moe]([m5C])[sp].[moe](T)[sp].[moe](G)[sp].[moe](G)}$$$$ (last 3' nucleoside missing)” registered a 3 h FOB score of 0 score 0-7.

Regarding “RNA1{[moe]([m5C])[sp].[moe](A)[sp].[moe]([m5C])p.[moe](T)[sp].[moe](T)[sp].[moe](T)[sp].[moe]([m5C])[sp].[moe](A)[sp].[moe](T)[sp].[moe](A)[sp].[moe](A)[sp].[moe](T)[sp].[moe](G)[sp].[moe]([m5C])[sp].[moe](T)[sp].[moe](G)[sp].[moe](G)}$$$$ (last 3' nucleoside missing)”, the 3 h FOB score was 1 score 0-7.

Substance “RNA1{[moe]([m5C])[sp].[moe](A)[sp].[moe]([m5C])p.[moe](T)[sp].[moe](T)[sp].[moe](T)[sp].[moe]([m5C])[sp].[moe](A)[sp].[moe](T)[sp].[moe](A)[sp].[moe](A)[sp].[moe](T)[sp].[moe](G)[sp].[moe]([m5C])[sp].[moe](T)p.[moe](G)[sp].[moe](G)}$$$$ (last 3' nucleoside missing)” showed a 3 h FOB score of 0 score 0-7.

Turning to “RNA1{[moe]([m5C])[sp].[moe](A)[sp].[moe]([m5C])p.[moe](T)[sp].[moe](T)[sp].[moe](T)[sp].[moe]([m5C])[sp].[moe](A)[sp].[moe](T)p.[moe](A)[sp].[moe](A)[sp].[moe](T)[sp].[moe](G)[sp].[moe]([m5C])[sp].[moe](T)p.[moe](G)[sp].[moe](G)}$$$$ (last 3' nucleoside missing)”, the 3 h FOB score worked out at 0 score 0-7.

On to “RNA1{[moe]([m5C])[sp].[moe](A)[sp].[moe]([m5C])p.[moe](T)p.[moe](T)p.[moe](T)p.[moe]([m5C])[sp].[moe](A)[sp].[moe](T)[sp].[moe](A)[sp].[moe](A)[sp].[moe](T)[sp].[moe](G)[sp].[moe]([m5C])[sp].[moe](T)[sp].[moe](G)[sp].[moe](G)}$$$$ (last 3' nucleoside missing)”, for which the 3 h FOB score was determined as 0 score 0-7.

The substance “RNA1{[moe]([m5C])[sp].[moe](A)p.[moe]([m5C])[sp].[moe](T)[sp].[moe](T)[sp].[moe](T)[sp].[moe]([m5C])[sp].[moe](A)[sp].[moe](T)[sp].[moe](A)[sp].[moe](A)[sp].[moe](T)[sp].[moe](G)[sp].[moe]([m5C])[sp].[moe](T)p.[moe](G)[sp].[moe](G)}$$$$ (last 3' nucleoside missing)” displayed a 3 h FOB score of 0 score 0-7.

As for “RNA1{[moe]([m5C])[sp].[moe](A)p.[moe]([m5C])[sp].[moe](T)[sp].[moe](T)[sp].[moe](T)[sp].[moe]([m5C])[sp].[moe](A)[sp].[moe](T)[sp].[moe](A)[sp].[moe](A)[sp].[moe](T)p.[moe](G)[sp].[moe]([m5C])[sp].[moe](T)[sp].[moe](G)[sp].[moe](G)}$$$$ (last 3' nucleoside missing)”, the 3 h FOB score amounted to 0 score 0-7.

For the substance “RNA1{[moe]([m5C])[sp].[moe](A)p.[moe]([m5C])[sp].[moe](T)[sp].[moe](T)[sp].[moe](T)[sp].[moe]([m5C])[sp].[moe](A)[sp].[moe](T)[sp].[moe](A)p.[moe](A)[sp].[moe](T)[sp].[moe](G)[sp].[moe]([m5C])[sp].[moe](T)[sp].[moe](G)[sp].[moe](G)}$$$$ (last 3' nucleoside missing)”, the 3 h FOB score amounted to 0 score 0-7.

Turning to “RNA1{[moe]([m5C])[sp].[moe](A)p.[moe]([m5C])[sp].[moe](T)[sp].[moe](T)[sp].[moe](T)[sp].[moe]([m5C])[sp].[moe](A)p.[moe](T)[sp].[moe](A)[sp].[moe](A)[sp].[moe](T)[sp].[moe](G)[sp].[moe]([m5C])[sp].[moe](T)[sp].[moe](G)[sp].[moe](G)}$$$$ (last 3' nucleoside missing)”, the 3 h FOB score is 1 score 0-7.

Regarding “RNA1{[moe]([m5C])[sp].[moe](A)p.[moe]([m5C])[sp].[moe](T)[sp].[moe](T)[sp].[moe](T)p.[moe]([m5C])[sp].[moe](A)[sp].[moe](T)[sp].[moe](A)[sp].[moe](A)[sp].[moe](T)[sp].[moe](G)[sp].[moe]([m5C])[sp].[moe](T)[sp].[moe](G)[sp].[moe](G)}$$$$ (last 3' nucleoside missing)”, the 3 h FOB score was 0 score 0-7.

Substance “RNA1{[moe]([m5C])[sp].[moe](A)p.[moe]([m5C])[sp].[moe](T)p.[moe](T)[sp].[moe](T)[sp].[moe]([m5C])[sp].[moe](A)[sp].[moe](T)[sp].[moe](A)[sp].[moe](A)[sp].[moe](T)[sp].[moe](G)[sp].[moe]([m5C])[sp].[moe](T)[sp].[moe](G)[sp].[moe](G)}$$$$ (last 3' nucleoside missing)” came in with a 3 h FOB score of 0 score 0-7.

“RNA1{[moe]([m5C])[sp].[moe](A)p.[moe]([m5C])p.[moe](T)[sp].[moe](T)[sp].[moe](T)[sp].[moe]([m5C])[sp].[moe](A)[sp].[moe](T)[sp].[moe](A)[sp].[moe](A)[sp].[moe](T)[sp].[moe](G)[sp].[moe]([m5C])[sp].[moe](T)[sp].[moe](G)[sp].[moe](G)}$$$$ (last 3' nucleoside missing)” had a 3 h FOB score of 0 score 0-7.

The substance “RNA1{[moe]([m5C])[sp].[moe](A)p.[moe]([m5C])p.[moe](T)[sp].[moe](T)[sp].[moe](T)[sp].[moe]([m5C])[sp].[moe](A)[sp].[moe](T)[sp].[moe](A)[sp].[moe](A)[sp].[moe](T)[sp].[moe](G)[sp].[moe]([m5C])p.[moe](T)p.[moe](G)[sp].[moe](G)}$$$$ (last 3' nucleoside missing)” displayed a 3 h FOB score of 0 score 0-7.

For the substance “RNA1{[moe]([m5C])[sp].[moe](A)p.[moe]([m5C])p.[moe](T)p.[moe](T)[sp].[moe](T)[sp].[moe]([m5C])[sp].[moe](A)[sp].[moe](T)[sp].[moe](A)[sp].[moe](A)[sp].[moe](T)[sp].[moe](G)[sp].[moe]([m5C])p.[moe](T)p.[moe](G)[sp].[moe](G)}$$$$ (last 3' nucleoside missing)”, the 3 h FOB score is 0 score 0-7.

“RNA1{[moe]([m5C])[sp].[moe](A)p.[moe]([m5C])p.[moe](T)p.[moe](T)[sp].[moe](T)[sp].[moe]([m5C])[sp].[moe](A)[sp].[moe](T)[sp].[moe](A)[sp].[moe](A)[sp].[moe](T)[sp].[moe](G)p.[moe]([m5C])p.[moe](T)p.[moe](G)[sp].[moe](G)}$$$$ (last 3' nucleoside missing)” gave a 3 h FOB score of 0 score 0-7.

On to “RNA1{[moe]([m5C])[sp].[moe](A)p.[moe]([m5C])p.[moe](T)p.[moe](T)p.[moe](T)[sp].[moe]([m5C])[sp].[moe](A)[sp].[moe](T)[sp].[moe](A)[sp].[moe](A)[sp].[moe](T)[sp].[moe](G)p.[moe]([m5C])p.[moe](T)p.[moe](G)[sp].[moe](G)}$$$$ (last 3' nucleoside missing)”, for which the 3 h FOB score was found to be 0 score 0-7.

In the case of “RNA1{[moe]([m5C])[sp].[moe](T)[sp].[moe](T)[sp].[moe](T)[sp].[moe]([m5C])[sp].[moe](A)[sp].[moe](T)[sp].[moe](A)[sp].[moe](A)[sp].[moe](T)[sp].[moe](G)[sp].[moe]([m5C])[sp].[moe](T)[sp].[moe](G)[sp].[moe](G)}$$$$ (last 3' nucleoside missing)”, the 3 h FOB score was 2.88 score 0-7.

Substance “RNA1{[moe]([m5C])[sp].[moe](T)[sp].[moe](T)[sp].[moe](T)[sp].[moe]([m5C])[sp].[moe](A)[sp].[moe](T)[sp].[moe](A)[sp].[moe](A)[sp].[moe](T)p.[moe](G)p.[moe]([m5C])p.[moe](T)p.[moe](G)[sp].[moe](G)}$$$$ (last 3' nucleoside missing)” gave a 3 h FOB score of 0 score 0-7.

“RNA1{[moe]([m5C])[sp].[moe](T)[sp].[moe](T)[sp].[moe](T)[sp].[moe]([m5C])[sp].[moe](A)[sp].[moe](T)[sp].[moe](A)[sp].[moe](A)p.[moe](T)p.[moe](G)p.[moe]([m5C])p.[moe](T)[sp].[moe](G)[sp].[moe](G)}$$$$ (last 3' nucleoside missing)” displayed a 3 h FOB score of 0 score 0-7.

For the substance “RNA1{[moe]([m5C])[sp].[moe](T)[sp].[moe](T)[sp].[moe](T)[sp].[moe]([m5C])[sp].[moe](A)[sp].[moe](T)p.[moe](A)p.[moe](A)p.[moe](T)[sp].[moe](G)[sp].[moe]([m5C])[sp].[moe](T)[sp].[moe](G)[sp].[moe](G)}$$$$ (last 3' nucleoside missing)”, the 3 h FOB score was determined as 2 score 0-7.
